From article PMC11329928, “Design, synthesis and structure-activity relationship (SAR) studies of an unusual class of non-cationic fatty amine-tripeptide conjugates as novel synthetic antimicrobial agents” (Frontiers in Pharmacology, 2024)

Assays:
[1] = test system: Streptococcus pneumoniae R6; test: Growth inhibition / lysis screening of planktonic cultures (OD550/600); type: cell-based; design: key: (+++) full inhibition; (++) partial inhibition; (+) growth retardation; -: (−) no effect; conditions: S. pneumoniae R6, 50 and 100 μM compound added at early logarithmic phase (T1), OD550/600 followed 10 h, 37°C
Procedure: (§1) Planktonic cultures of selected pathogens (S. pneumoniae R6, S. pyogenes ^T, Staphylococcus aureus ^T, Escherichia coli DH10B, and Pseudomonas aeruginosa PAO1 strains) on early logarithmic-phase (T1) were assayed for their sensitivity to a broad range of DICAM compounds, as indicated in Table 1. Their bacteriostatic or lytic effect was first tested by measuring the variation of the OD550/600 as a function of time (10 h) when (50/100 μM) DICAMs were added, compared to untreated controls. The screening results, summarized in Table 1, evidenced that a potent antimicrobial activity may exist even when the negative charge of the peptide was higher than in the prototype compounds.
(§2) Susceptibility to DICAMs was first tested by growth-inhibition assays at 50 and 100 μM of compound. Briefly, working solutions at 5 mM or 10 mM DICAM in pure DMSO were prepared from DICAM stocks (40 mM in pure DMSO) and diluted with fresh culture medium to 5× the desired final concentration. Aliquots (50 µL) of these solutions were added to 200 µL of bacterium cultures grown to early exponential phase (OD550/600 c. a. 0.15–0.2 in sterile 96-well plates (Cultek, Spain). Incubation continued for 10 h at 37°C and turbidity (OD550/600) values were measured every 20 min to monitor growth and lysis, using a VersaMax microplate reader (Molecular Devices; United Kingdom). Next, the activity dependence on DICAM’s dose was examined by measuring the turbidity of treated and untreated cultures as a function of time. Also, the decay of bacterial viability (CFU/mL) at selected times of treatment was assessed by colony counting on LB-agar or TSA plates after overnight incubation at 37°C. By default, 10 μL of 10-fold serially diluted samples were plated, which set the lower detection limit at 10^2 CFU/mL (10^1 CFU/mL when 100 μL of the undiluted sample was seeded).

Staphylococcus aureus T = test: Growth inhibition screening of planktonic cultures (OD550/600); type: cell-based; design: key: (+++) full inhibition; (++) partial inhibition; (+) growth retardation; -: (−) no effect; conditions: S. aureus T, 50 and 100 μM compound added at T1, OD550/600 followed 10 h, 37°C
Procedure: as §1, §2

Streptococcus pyogenes T = test: as above; type: cell-based; design: key: (+++) full inhibition; (++) partial inhibition; (+) growth retardation; -: (−) no effect; conditions: S. pyogenes T, 50 and 100 μM compound added at T1, OD550/600 followed 10 h, 37°C
Procedure: as §1, §2

[2] = test system: Pseudomonas aeruginosa PAO1; test: as above; type: cell-based; design: key: (+++) full inhibition; (++) partial inhibition; (+) growth retardation; -: (−) no effect; conditions: P. aeruginosa PAO1, 50 and 100 μM compound added at T1, OD550/600 followed 10 h, 37°C
Procedure: as §1, §2

Escherichia coli DH10B = test: as above; type: cell-based; design: key: (+++) full inhibition; (++) partial inhibition; (+) growth retardation; -: (−) no effect; conditions: E. coli DH10B, 50 and 100 μM compound added at T1, OD550/600 followed 10 h, 37°C
Procedure: as §1, §2

[3] = Calcein release from LUVs, all tested compositions; conditions: 10 μM DICAM, 25°C, vesicle buffer pH 7.4, calcein release
Procedure: (§3) LUVs were prepared for calceine liberation assays as described ([Chongsiriwatana and Barron, 2009]). Lipid composition (mole %) of LUVs was: POPG (100), POPG:CL (80:20), POPG:CL:DOPE ([…]), and POPG:CL:GlcDAG (75:5:20). Briefly, the nitrogen-dried lipid mixture was dissolved at 1.25 mM with 100 mM calceine in vesicle buffer (10 mM Tris, 140 mM NaCl, 0.5 mM EDTA, pH 7.4) followed by five thaw-freeze cycles. Calceine-entrapped LUVs were prepared by extrusion through 100 nm polycarbonate membranes (Avanti Polar Lipids). Non-entrapped calceine was separated from LUVs by gel filtration on a Sephacryl® S200-HR column (Sigma). LUVs permeabilization was monitored at 25°C by fluorescence emission at 550 nm (λex = 480 nm) as a function of time in a Fluoromax-4 spectrofluorometer (Horiba, France) using agitation. Signal stabilization of samples (1,500 µL vesicle buffer plus 45 µL LUVs) was recorded for 5 min before 10 µM final DICAM addition, and calcein release was monitored for a maximum of 20 min. After incubation, samples were solubilized in Triton X-100 (0.025%) and the fluorescence signal recorded thereafter was used to normalize the entire data set. Solubilization of DICAM-untreated LUVs in Triton X-100 was used as a positive control. No perturbation was detected in controls containing DMSO.

[4] = RP-HPLC retention time used to determine hydrophobicity; type: physicochemical; conditions: analytical RP-HPLC, C18 Sunfire column (4.6 mm × 150 mm, 3.5 μm); A = 0.05% TFA in water, B = acetonitrile; 10% to 100% B in 20 min then isocratic 100% B 10 min; 217 and 254 nm; used as measure of hydrophobicity
Procedure: The purity of the lipopeptides was checked by analytical RP-HPLC on an Agilent Infinity instrument equipped with a Diode Array and a C18 Sunfire column (4.6 mm × 150 mm, 3.5 μm). As mobile phase A:B mixtures were used, where A = 0.05% TFA in water and B = acetonitrile. The samples were analyzed at 217 and 254 nm in a gradient from 10% of B to 100% of B in 20 min followed by isocratic 100% of B in 10 min.
Retention times were used to determine the hydrophobicity ([Neubauer et al., 2020]). HRMS (EI+) was carried out in an Agilent 6,520 Accurate-Mass Q-TOF LC/MS spectrometer using water/acetonitrile mixtures. Results can be found in Supplementary Section S3, S4.

S. pyogenes T membrane [5] = test: Membrane permeation, SYTOX Green; type: cell-based, Streptococcus pyogenes; conditions: S. pyogenes T in PBS pH 7.2, 37°C
Procedure: (§4) Permeation and depolarization of S. pyogenes ^T membrane by DICAMs were assayed with the fluorescent probes SYTOX Green and DiSC3(5), respectively, in a Varioskan Flash microplate reader (Thermo Scientific; Spain) using FluoroNunc 96-well plates (Thermo Scientific; Spain). For permeation assays, cells were grown to an OD550 ≈ 0.3, washed once with PBS pH 7.2 (3,800 × g, 7 min, room temperature), and adjusted to a final OD550 ≈ 0.4 (∼10^8 CFU/mL) with the same buffer before mixing in the dark with SYTOX Green (5 µM final concentration). One hundred µL of this suspension was dispensed per plate well and the signal stabilization was monitored for 15 min (λex = 485 nm; λem = 520 nm). Then, 100 µL of two-fold serially diluted lipopeptide samples was added and changes in fluorescence intensity were registered for 60 min at 37°C. SYTOX Green (900 Da) binds to intracellular DNA when the cell membrane is damaged, thereby increasing fluorescence intensity ([Roth et al., 1997]). Positive controls (100% membrane permeabilization) were carried out by adding Titron X-100 (0.01% final concentration) to untreated bacterial samples ([Rathinakumar et al., 2009]). For membrane depolarization assays, 180 µL of an OD550 ≈ 0.2 culture (BHI; ≈ 10^7 CFU/mL) supplemented with DiSC3(5) (1 µM final concentration) was distributed per well, and signal stabilization was registered for 30 min (λex = 622 nm; λem = 670 nm) ([Te Winkel et al., 2016]). Subsequently, 20 µL of a two-fold serial dilution of lipopeptide in culture medium was added, and fluorescence intensity was recorded for 60 min at 37°C. Partition of DiSC3(5) to the surface of polarized cells decreases the probe fluorescence, and its release, caused by membrane depolarization, results in an increase in fluorescence. […] The background signal of controls with bacterial cells without the fluorescent probe, as well as the dye fluorescence in the presence of the tested compounds without bacteria, were also registered. No change in the fluorescence intensity of the probes occurred upon DICAM addition in the absence of bacterial cells.

[6] = Calcein release from LUVs; conditions: 10 μM DICAM, 25°C, vesicle buffer pH 7.4, calcein release
Procedure: as §3

S. pyogenes T membrane [7] = test: Membrane depolarization, DiSC3(5); type: cell-based, Streptococcus pyogenes; conditions: S. pyogenes T in BHI, 37°C
Procedure: as §4

Substance	Growth halt or lysis (50/100 μM), Spn [1]	Growth halt or lysis (50/100 μM), Sa T (Staphylococcus aureus T)	Growth halt or lysis (50/100 μM), Spy T (Streptococcus pyogenes T)	Growth halt or lysis (50/100 μM), Pa [2]	Growth halt or lysis (50/100 μM), Ec (Escherichia coli DH10B)	Permeation of model membranes (LUVs), result in words [3]	Retention time [4] [min]	Membrane permeation (SYTOX Green), result in words (S. pyogenes T membrane [5])	Permeation of DOPE:POPG:CL (80:15:5) LUVs, result in words [6]	Membrane depolarization (DiSC3(5)), result in words (S. pyogenes T membrane [7])
Asn- Pro -NH-C18H37 · HCl [DICAM 13]	-	-	+	-	-	able to permeate all tested model membranes	20.18			
Asn- Pro -Tyr(Bzl)-NH-C18H37 ·HCl [DICAM 6]	-	-	-	-	-		22.10	no depolarization or membrane permeation	particularly effective	no depolarization
